From publication PMC10385824, “Antiproliferative and Tubulin-Destabilising Effects of 3-(Prop-1-en-2-yl)azetidin-2-Ones and Related Compounds in MCF-7 and MDA-MB-231 Breast Cancer Cells” (Pharmaceuticals, 2023)
pIC50: −log10 of the molar value. Read-outs that look alike come from different tables or passages of the source.

What was measured:
OVCAR-3 = assay: NCI-60 SRB screen, ovarian cancer; format: cell-based, human; conditions: OVCAR-3, 48 h; for GI50: Homo sapiens, five dose 0.01–100 µM, read-out: GI50
COLO 205 = assay: NCI-60 SRB screen, colon cancer; format: cell-based, human; conditions: COLO 205, 48 h; for GI50: Homo sapiens, five dose 0.01–100 µM, read-out: GI50
MOLT-4 = assay: NCI-60 SRB screen, leukemia; format: cell-based, human; conditions: MOLT-4, 48 h; for GI50: Homo sapiens, five dose 0.01–100 µM, read-out: GI50
MDA-MB-231/ATCC = assay: NCI-60 SRB screen, breast cancer; format: cell-based, human; conditions: 48 h; for GI50 / pIC50: Homo sapiens; for GI50: five dose 0.01–100 µM, read-out: GI50; for pIC50: MDA-MB-231, obtained from NCI, five concentrations 0.01–100 μM, read-out: Antiproliferative Activity IC50
IGROV1 = assay: NCI-60 SRB screen, ovarian cancer; format: cell-based, human; conditions: IGROV1, 48 h; for GI50: Homo sapiens, IGROV-1, five dose 0.01–100 µM, read-out: GI50
U251 = assay: NCI-60 SRB screen, CNS cancer; format: cell-based, human; conditions: U251, 48 h; for GI50: Homo sapiens, U-251, five dose 0.01–100 µM, read-out: GI50
MCF-7 = assay: cells; conditions: Homo sapiens; for GI50: MCF7, 48 h
OVCAR-5 = assay: NCI-60 SRB screen, ovarian cancer; format: cell-based, human; conditions: OVCAR-5, 48 h; for GI50: Homo sapiens, five dose 0.01–100 µM, read-out: GI50
NCI-H332M = assay: NCI-60 SRB screen, non-small cell lung cancer; format: cell-based; conditions: Homo sapiens, five dose 0.01–100 µM, 48 h, read-out: GI50
LOX IMVI = assay: NCI-60 SRB screen, melanoma; format: cell-based, human; conditions: 48 h; for GI50: Homo sapiens, five dose 0.01–100 µM, read-out: GI50
NCI-H23 = assay: NCI-60 SRB screen, non-small cell lung cancer; format: cell-based, human; conditions: NCI-H23, 48 h; for GI50: Homo sapiens, five dose 0.01–100 µM, read-out: GI50
786-0 = assay: NCI-60 SRB screen, renal cancer; format: cell-based, human; conditions: 786-0, 48 h; for GI50: Homo sapiens, five dose 0.01–100 µM, read-out: GI50
CCRF-CEM = assay: NCI-60 SRB screen, leukemia; format: cell-based; conditions: Homo sapiens, five dose 0.01–100 µM, 48 h, read-out: GI50
PC-3 = assay: NCI-60 SRB screen, prostate cancer; format: cell-based, human; conditions: PC-3, 48 h; for GI50: Homo sapiens, five dose 0.01–100 µM, read-out: GI50
T-47D = assay: NCI-60 SRB screen, breast cancer; format: cell-based, human; conditions: T-47D, 48 h; for GI50: Homo sapiens, T47D, five dose 0.01–100 µM, read-out: GI50
SW-620 = assay: NCI-60 SRB screen, colon cancer; format: cell-based, human; conditions: SW-620, 48 h; for GI50: Homo sapiens, five dose 0.01–100 µM, read-out: GI50
CAKI-1 = assay: NCI-60 SRB screen, renal cancer; format: cell-based, human; conditions: CAKI-1, 48 h; for GI50: Homo sapiens, five dose 0.01–100 µM, read-out: GI50
HCT-2998 = assay: NCI-60 SRB screen, colon cancer; format: cell-based, human; conditions: 48 h; for GI50: Homo sapiens, HCT-2998, five dose 0.01–100 µM, read-out: GI50
NCI-H226 = assay: NCI-60 SRB screen, non-small cell lung cancer; format: cell-based; conditions: Homo sapiens; NCI-H226; five dose 0.01–100 µM, 48 h; read-out: GI50
A498 = assay: NCI-60 SRB screen, renal cancer; format: cell-based, human; conditions: A498, 48 h; for GI50: Homo sapiens, five dose 0.01–100 µM, read-out: GI50
KM12 = assay: NCI-60 SRB screen, colon cancer; format: cell-based, human; conditions: KM12, 48 h; for GI50: Homo sapiens, five dose 0.01–100 µM, read-out: GI50
A549/ATCC = assay: NCI-60 SRB screen, non-small cell lung cancer; format: cell-based, human; conditions: 48 h; for GI50: Homo sapiens, A549/ATCC, five dose 0.01–100 µM, read-out: GI50
MDA-MB-435 = assay: NCI-60 SRB screen, melanoma; format: cell-based, human; conditions: MDA-MB-435, 48 h; for GI50: Homo sapiens, five dose 0.01–100 µM, read-out: GI50
NCI/ADR-RES = assay: NCI-60 SRB screen, ovarian cancer; format: cell-based, human; conditions: 48 h; for GI50: Homo sapiens, five dose 0.01–100 µM, read-out: GI50
HCT-15 = assay: NCI-60 SRB screen, colon cancer; format: cell-based, human; conditions: HCT-15, 48 h; for GI50: Homo sapiens, five dose 0.01–100 µM, read-out: GI50
SK-MEL-5 = assay: NCI-60 SRB screen, melanoma; format: cell-based, human; conditions: SK-MEL-5, 48 h; for GI50: Homo sapiens, five dose 0.01–100 µM, read-out: GI50
TK-10 = assay: NCI-60 SRB screen, renal cancer; format: cell-based, human; conditions: TK-10, 48 h; for GI50: Homo sapiens, five dose 0.01–100 µM, read-out: GI50
UACC-62 = assay: NCI-60 SRB screen, melanoma; format: cell-based, human; conditions: UACC-62, 48 h; for GI50: Homo sapiens, five dose 0.01–100 µM, read-out: GI50
HOP-92 = assay: NCI-60 SRB screen, non-small cell lung cancer; format: cell-based, human; conditions: HOP-92, 48 h; for GI50: Homo sapiens, five dose 0.01–100 µM, read-out: GI50
SNB-19 = assay: NCI-60 SRB screen, CNS cancer; format: cell-based, human; conditions: SNB-19, 48 h; for GI50: Homo sapiens, five dose 0.01–100 µM, read-out: GI50
MALME-3M = assay: NCI-60 SRB screen, melanoma; format: cell-based, human; conditions: MALME-3M, 48 h; for GI50: Homo sapiens, five dose 0.01–100 µM, read-out: GI50
[1] = system: MDA-MB-231 human breast cancer cells; assay: Alamar Blue cell viability (antiproliferative) assay; format: cell-based; conditions: read-out: IC50

C=C(C)C1C(=O)N(c2cc(OC)c(OC)c(OC)c2)C1c1ccc(OC)c(N)c1 (stereo not shown) [9s, 4-(3-Amino-4-methoxyphenyl)-1-(3,4,5-trimethoxyphenyl)-3-(prop-1-en-2-yl)azetidin-2-one]
GI50 (OVCAR-3): 22.8 nM | GI50 (COLO 205): 19.7 nM | GI50 (MOLT-4): 37.2 nM | GI50 (MDA-MB-231/ATCC; MDA-MB-231/ATCC): 31.5 nM | GI50 (IGROV1): 35.7 nM | GI50 (U251): 37.5 nM | GI50 (MCF-7): 32.4 nM | GI50 (OVCAR-5): 81.3 nM | GI50 (NCI-H332M): 51.1 nM | GI50 (LOX IMVI): 32.5 nM | GI50 (NCI-H23): 25.8 nM | GI50 (786-0): 37.6 nM | GI50 (CCRF-CEM): 37.7 nM | GI50 (PC-3): 37.9 nM | GI50 (T-47D): > 100000 nM | GI50 (SW-620): 39.4 nM | GI50 (CAKI-1): 49.1 nM | GI50 (HCT-2998): 29.1 nM | GI50 (NCI-H226): 43.5 nM | GI50 (A498): 23.4 nM | GI50 (KM12): 23.1 nM | GI50 (A549/ATCC): 41.5 nM | GI50 (MDA-MB-435): 26 nM | GI50 (NCI/ADR-RES): 18.5 nM | GI50 (HCT-15): 41.6 nM | GI50 (SK-MEL-5): 23.2 nM | GI50 (TK-10): 64.9 nM | GI50 (UACC-62): 40.6 nM | GI50 (HOP-92): 43.7 nM

C=C(C)C1C(=O)N(c2cc(OC)c(OC)c(OC)c2)C1c1ccc(OC)c(O)c1 (stereo not shown) [9q, 4-(3-Hydroxy-4-methoxyphenyl)-1-(3,4,5-trimethoxyphenyl)-3-(prop-1-en-2-yl)azetidin-2-one]
GI50 (OVCAR-3): 20.7 nM | % Growth (OVCAR-3; one dose 10 µM): -40.14% | % Growth (COLO 205; one dose 10 µM): -27.00% | GI50 (COLO 205): 284 nM | GI50 (MOLT-4): 20.2 nM | % Growth (MOLT-4; one dose 10 µM): -15.34% | GI50 (SNB-19): 58.8 nM | % Growth (SNB-19; one dose 10 µM): 37.93% | GI50 (MDA-MB-231/ATCC; MDA-MB-231/ATCC): 16.8 nM | pIC50 (MDA-MB-231/ATCC): 7.62 | % Growth (MDA-MB-231/ATCC; MDA-MB-231/ATCC, one dose 10 µM): -6.67% | GI50 (IGROV1): 32.2 nM | % Growth (IGROV1; one dose 10 µM): 29.32% | GI50 (U251): 30.5 nM | % Growth (U251; one dose 10 µM): 9.06% | pIC50 (MCF-7; MCF7): > 8.00 | GI50 (MCF-7): < 10 nM | CC50 (MCF-7; MCF7, read-out: LC50): > 100000 nM | GI50 (OVCAR-5): 49.4 nM | % Growth (OVCAR-5; one dose 10 µM): 44.67% | GI50 (NCI-H332M; […]): 47.7 nM | GI50 (LOX IMVI): < 10 nM | % Growth (LOX IMVI; one dose 10 µM): 30.61% | GI50 (NCI-H23): 23.7 nM | % Growth (NCI-H23; one dose 10 µM): 14.46% | % Growth (786-0; one dose 10 µM): 4.28% | GI50 (786-0): 26.8 nM | GI50 (CCRF-CEM): 19.2 nM | GI50 (PC-3): 20.1 nM | % Growth (PC-3; one dose 10 µM): 27.31% | GI50 (T-47D): > 100000 nM | % Growth (T-47D; one dose 10 µM): 67.35% | GI50 (SW-620): 33.4 nM | % Growth (SW-620; one dose 10 µM): 17.89% | % Growth (CAKI-1; one dose 10 µM): 44.03% | GI50 (CAKI-1): 30.8 nM | GI50 (MALME-3M): 20500 nM | % Growth (MALME-3M; one dose 10 µM): 63.23% | pIC50 [1]: 7.62 | % Growth (HCT-2998; HCC-2998, one dose 10 µM): -6.59% | GI50 (HCT-2998): 30.1 nM | % Growth (A498; one dose 10 µM): -13.19% | GI50 (A498): < 10 nM | GI50 (KM12): < 10 nM | % Growth (KM12; one dose 10 µM): -24.63% | % Growth (A549/ATCC; A549/A TCC, one dose 10 µM): 14.76% | GI50 (A549/ATCC): 27.8 nM | GI50 (MDA-MB-435): < 10 nM | % Growth (MDA-MB-435; one dose 10 µM): -13.45% | GI50 (NCI/ADR-RES): < 10 nM | % Growth (NCI/ADR-RES; one dose 10 µM): -2.95% | % Growth (HCT-15; one dose 10 µM): 15.23% | GI50 (HCT-15): 29.9 nM | GI50 (SK-MEL-5): 12.4 nM | % Growth (SK-MEL-5; one dose 10 µM): -0.90% | GI50 (TK-10): 53.4 nM | % Growth (TK-10; one dose 10 µM): 46.63% | GI50 (UACC-62): < 10 nM | % Growth (UACC-62; one dose 10 µM): 38.81% | % Growth (HOP-92; one dose 10 µM): 16.15% | GI50 (HOP-92): 15.4 nM

C=C(C)C1C(=O)N(c2cc(OC)c(OC)c(OC)c2)C1c1ccc(OC)cc1 (stereo not shown) [9h, 4-(4-Methoxyphenyl)-1-(3,4,5-trimethoxyphenyl)-3-(prop-1-en-2-yl)azetidin-2-one]
GI50 (OVCAR-3): 25.4 nM | GI50 (COLO 205): 27.1 nM | GI50 (MOLT-4): 39.7 nM | GI50 (SNB-19): 67.5 nM | GI50 (MDA-MB-231/ATCC; MDA-MB-231/ATCC): 32.2 nM | pIC50 (MDA-MB-231/ATCC): 7.50 | GI50 (IGROV1): 49.9 nM | GI50 (U251): 36 nM | GI50 (MCF-7): 36.8 nM | GI50 (OVCAR-5): 98.3 nM | GI50 (LOX IMVI): 38.8 nM | GI50 (NCI-H23): 23.7 nM | GI50 (786-0): 44.2 nM | GI50 (CCRF-CEM): 37.5 nM | GI50 (PC-3): 45.3 nM | GI50 (T-47D): 26500 nM | GI50 (SW-620): 42.4 nM | GI50 (CAKI-1): 83.1 nM | GI50 (MALME-3M): > 100000 nM | pIC50 [1]: 7.50 | GI50 (HCT-2998): 30.7 nM | GI50 (A498): 24.3 nM | GI50 (KM12): 34 nM | GI50 (A549/ATCC): 40.8 nM | GI50 (MDA-MB-435): 294 nM | GI50 (NCI/ADR-RES): 21.3 nM | GI50 (HCT-15): 40.6 nM | GI50 (SK-MEL-5): 24.3 nM | GI50 (TK-10): 96.5 nM | GI50 (UACC-62): 39.2 nM | GI50 (HOP-92): 71.9 nM
